Assay results published in ChEMBL document CHEMBL5030523, “Mechanisms of the Antiproliferative and Antitumor Activity of Novel Telomerase-Carbonic Anhydrase Dual-Hybrid Inhibitors” (J Med Chem, 2021).
Activity calls are given as the source filed them. The rule behind the calls is not given here.

Columns and labels:
[1] = biological target: Carbonic anhydrase 5A, mitochondrial (Homo sapiens, UniProt P35218); assay: Inhibition of human carbonic anhydrase 5A by stopped-flow CO2 hydration assay
COLO 205 [2] = assay: Induction of apoptosis in human COLO 205 cells assessed as necrotic cells incubated for 44 days by Annexin V/FITC and PI staining based flow cytometry analysis (reference value: 0.1 %); format: functional; details: time 44 day
[3] = biological target: T1, Telomerase reverse transcriptase (Homo sapiens, UniProt O14746); assay: Inhibition of telomerase in human HCT-116 cells by TRAP assay; format: cell-based
COLO 205 [4] = assay: Induction of apoptosis in human COLO 205 cells assessed as viable cells incubated for 12 hrs by Annexin V/FITC and PI staining based flow cytometry analysis (reference value: 71.63 %); format: functional
COLO 205 [5] = assay: Induction of cell cycle arrest in human COLO 205 cells assessed as decrease in number of cells in S phase incubated for 44 to 56 days by propidium iodide staining based flow cytometry analysis; format: functional; details: time 44-56 day
COLO 205 [6] = assay: Cell cycle arrest in human COLO 205 cells assessed as accumulation at G0/G1 phase at 30 uM incubated for 44 days by propidium iodide staining based flow cytometry analysis (reference value: 77.02 %); format: functional; details: time 44 day
COLO 205 [7] = assay: Induction of apoptosis in human COLO 205 cells assessed as necrotic cells incubated for 12 hrs by Annexin V/FITC and PI staining based flow cytometry analysis (reference value: 0.14 %); format: functional
COLO 205 [8] = assay: Antiproliferative activity against human COLO 205 cells assessed as cell viability at 100 uM measured after 72 hrs by MTT assay; format: functional; details: read-out: Activity
COLO 205 [9] = assay: Induction of apoptosis in human COLO 205 cells assessed as early apoptotic cells incubated for 24 hrs by Annexin V/FITC and PI staining based flow cytometry analysis (reference value: 14.75 %); format: functional
COLO 205 [10] = assay: Cell cycle arrest in human COLO 205 cells assessed as accumulation S phase incubated for 24 hrs by propidium iodide staining based flow cytometry analysis (reference value: 0.48 %); format: functional
COLO 205 [11] = assay: Induction of apoptosis in human COLO 205 cells assessed as viable cells incubated for 44 days by Annexin V/FITC and PI staining based flow cytometry analysis (reference value: 94.05 %); format: functional; details: time 44 day
[12] = biological target: T1, Telomerase reverse transcriptase; assay: Inhibition of telomerase in human COLO 205 cell lysate at 10 uM by TRAP assay relative to control; format: subcellular
COLO 205 [13] = assay: Induction of apoptosis in human COLO 205 cells assessed as late apoptotic cells incubated for 24 hrs by Annexin V/FITC and PI staining based flow cytometry analysis (reference value: 13.48 %); format: functional
[14] = biological target: T1, Telomerase reverse transcriptase; assay: Inhibition of telomerase in human SW-620 cells by TRAP assay; format: cell-based
COLO 205 [15] = assay: Cell cycle arrest in human COLO 205 cells assessed as accumulation at G2/M phase at 30 uM incubated for 56 days by propidium iodide staining based flow cytometry analysis (reference value: 16.01 %); format: functional; details: time 56 day
[16] = biological target: T1, Telomerase reverse transcriptase; assay: Inhibition of telomerase in human COLO 205 cells assessed as shortening of telomere length at 30 uM by measured after 56 days qPCR relative to control; format: cell-based; details: time 56.0 day
COLO 205 [17] = assay: Cell cycle arrest in human COLO 205 cells assessed as accumulation at G0/G1 phase incubated for 24 hrs by propidium iodide staining based flow cytometry analysis (reference value: 58.82 %); format: functional
COLO 205 [18] = assay: Induction of apoptosis in human COLO 205 cells assessed as late apoptotic cells incubated for 56 days by Annexin V/FITC and PI staining based flow cytometry analysis (reference value: 1.27 %); format: functional; details: time 56 day
COLO 205 [19] = assay: Cell cycle arrest in human COLO 205 cells assessed as accumulation G2/M phase incubated for 12 hrs by propidium iodide staining based flow cytometry analysis (reference value: 0.79 %); format: functional
COLO 205 [20] = assay: Cell cycle arrest in human COLO 205 cells assessed as accumulation at G2/M phase at 30 uM incubated for 44 days by propidium iodide staining based flow cytometry analysis (reference value: 15.12 %); format: functional; details: time 44 day
[21] = biological target: T1, Telomerase reverse transcriptase; assay: Non-competitive inhibition of telomerase (unknown origin) assessed as decrease in Vmax at 1 uM by Michaelis-Menten analysis
COLO 205 [22] = assay: Effect on TERC mRNA expression in human COLO 205 cells measured after 72 hrs by qRT-PCR analysis; format: functional, cell-based
COLO 205 [23] = assay: Cell cycle arrest in human COLO 205 cells assessed as accumulation G2/M phase incubated for 24 hrs by propidium iodide staining based flow cytometry analysis (reference value: 0.79 %); format: functional
COLO 205 [24] = assay: Induction of apoptosis in human COLO 205 cells assessed as early apoptotic cells incubated for 56 days by Annexin V/FITC and PI staining based flow cytometry analysis (reference value: 4.1 %); format: functional; details: time 56 day
COLO 205 [25] = assay: Cell cycle arrest in human COLO 205 cells assessed as accumulation at S phase at 30 uM incubated for 56 days by propidium iodide staining based flow cytometry analysis (reference value: 4.92 %); format: functional; details: time 56 day
[26] = biological target: T1, Telomerase reverse transcriptase; assay: Inhibition of telomerase in human HT-29 cells by TRAP assay; format: cell-based
COLO 205 [27] = assay: Induction of apoptosis in human COLO 205 cells assessed as viable cells incubated for 24 hrs by Annexin V/FITC and PI staining based flow cytometry analysis (reference value: 71.63 %); format: functional
COLO 205 [28] = assay: Induction of apoptosis in human COLO 205 cells assessed as early apoptotic cells incubated for 12 hrs by Annexin V/FITC and PI staining based flow cytometry analysis (reference value: 14.75 %); format: functional
COLO 205 [29] = assay: Cell cycle arrest in human COLO 205 cells assessed as accumulation at G0/G1 phase at 30 uM incubated for 56 days by propidium iodide staining based flow cytometry analysis (reference value: 72.81 %); format: functional; details: time 56 day
COLO 205 [30] = assay: Induction of cell senescence in human COLO 205 cells assessed by increase SA-beta-Gal activity measured after 44 to 56 days; format: functional, cell-based; details: time 44-56 day
COLO 205 [31] = assay: Effect on hTERT mRNA expression in human COLO 205 cells measured after 72 hrs by qRT-PCR analysis; format: functional, cell-based
[32] = biological target: T1, Telomerase reverse transcriptase; assay: Inhibition of telomerase in human SW-620 cells after 72 hrs by TRAP gel electrophoresis; format: cell-based
COLO 205 [33] = assay: Induction of apoptosis in human COLO 205 cells assessed as viable cells incubated for 56 days by Annexin V/FITC and PI staining based flow cytometry analysis (reference value: 94.61 %); format: functional; details: time 56 day
COLO 205 [34] = assay: Induction of apoptosis in human COLO 205 cells assessed as necrotic cells incubated for 24 hrs by Annexin V/FITC and PI staining based flow cytometry analysis (reference value: 0.14 %); format: functional
COLO 205 [35] = assay: Induction of cell cycle arrest in human COLO 205 cells assessed as decrease in number of cells in G2/M phase incubated for 44 to 56 days by propidium iodide staining based flow cytometry analysis; format: functional; details: time 44-56 day
[36] = biological target: T1, Telomerase reverse transcriptase; assay: Inhibition of telomerase in human COLO 205 cells after 72 hrs by TRAP gel electrophoresis; format: cell-based
[37] = biological target: T1, Telomerase reverse transcriptase; assay: Inhibition of telomerase in human HCT-116 cells after 72 hrs by TRAP gel electrophoresis; format: cell-based
COLO 205 [38] = assay: Cell cycle arrest in human COLO 205 cells assessed as accumulation S phase incubated for 12 hrs by propidium iodide staining based flow cytometry analysis (reference value: 0.48 %); format: functional

T1 sequence (O14746 whole entry): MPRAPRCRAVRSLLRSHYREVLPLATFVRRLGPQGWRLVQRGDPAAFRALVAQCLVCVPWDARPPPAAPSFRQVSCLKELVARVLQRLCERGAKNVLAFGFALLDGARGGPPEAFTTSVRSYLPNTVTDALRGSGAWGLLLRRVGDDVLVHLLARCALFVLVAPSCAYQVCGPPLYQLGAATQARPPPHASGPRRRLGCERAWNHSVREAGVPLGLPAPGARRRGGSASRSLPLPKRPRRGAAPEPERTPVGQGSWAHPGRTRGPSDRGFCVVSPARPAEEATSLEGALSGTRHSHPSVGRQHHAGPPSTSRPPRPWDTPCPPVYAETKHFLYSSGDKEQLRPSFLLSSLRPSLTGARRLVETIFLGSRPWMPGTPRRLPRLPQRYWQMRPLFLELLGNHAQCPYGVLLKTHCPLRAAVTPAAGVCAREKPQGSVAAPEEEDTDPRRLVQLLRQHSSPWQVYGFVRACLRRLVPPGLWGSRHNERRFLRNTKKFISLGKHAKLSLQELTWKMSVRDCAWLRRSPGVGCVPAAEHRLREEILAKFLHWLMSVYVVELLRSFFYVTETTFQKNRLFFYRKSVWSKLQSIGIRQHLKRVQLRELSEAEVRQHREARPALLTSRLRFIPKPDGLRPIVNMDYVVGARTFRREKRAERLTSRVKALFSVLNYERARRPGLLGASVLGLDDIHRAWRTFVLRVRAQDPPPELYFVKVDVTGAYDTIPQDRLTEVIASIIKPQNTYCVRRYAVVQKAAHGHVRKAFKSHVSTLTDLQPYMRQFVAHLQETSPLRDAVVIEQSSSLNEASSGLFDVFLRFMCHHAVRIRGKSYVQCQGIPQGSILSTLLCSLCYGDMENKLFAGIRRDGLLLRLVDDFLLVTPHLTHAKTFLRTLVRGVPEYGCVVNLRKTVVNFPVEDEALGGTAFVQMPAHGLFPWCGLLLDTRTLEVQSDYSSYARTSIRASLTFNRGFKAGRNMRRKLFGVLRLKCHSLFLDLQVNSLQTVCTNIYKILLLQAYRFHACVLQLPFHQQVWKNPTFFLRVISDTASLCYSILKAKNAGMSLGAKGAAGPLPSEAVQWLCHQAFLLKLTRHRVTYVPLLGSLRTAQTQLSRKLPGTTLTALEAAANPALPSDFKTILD
Carbonic anhydrase 5A, mitochondrial, sequence (P35218 whole entry): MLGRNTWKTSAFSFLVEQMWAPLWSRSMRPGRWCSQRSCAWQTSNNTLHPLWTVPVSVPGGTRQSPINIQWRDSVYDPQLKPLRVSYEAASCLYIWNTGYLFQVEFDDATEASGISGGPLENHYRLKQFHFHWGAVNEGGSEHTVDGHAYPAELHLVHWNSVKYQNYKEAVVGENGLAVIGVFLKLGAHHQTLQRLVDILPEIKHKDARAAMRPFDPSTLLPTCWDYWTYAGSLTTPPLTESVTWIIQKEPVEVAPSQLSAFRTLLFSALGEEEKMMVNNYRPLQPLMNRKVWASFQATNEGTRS

In the case of `Cc1cn([C@H]2C[C@@H](n3cc(COC(=O)c4ccc(S(N)(=O)=O)cc4)nn3)[C@@H](CO)O2)c(=O)[nH]c1=O`, the Ki [1] is reported as 4.8 µM, the Activity (COLO 205 [2]) is reported as 0.17% and the IC50 [3] is reported as 5.6 µM. The IC90 [3] was 31 µM, the Activity (COLO 205 [4]) was 84.8% and the Activity (COLO 205 [5]) was “Active”. For the same compound, the Activity (COLO 205 [6]) was 60.31%, the Activity (COLO 205 [7]) was 0.13% and the viability at 100 µM (COLO 205 [8]) was 51.6%. It also gave an Activity (COLO 205 [9]) of 3.82%, an Activity (COLO 205 [10]) of 3.52% and an Activity (COLO 205 [11]) of 76.55%. The inhibition [12] was > 70%, the Activity (COLO 205 [13]) was 3.13% and the IC50 [14] was 8.6 µM. It also gave an IC90 [14] of 33.2 µM, an Activity (COLO 205 [15]) of 1.37% and an inhibition [16] of 4.5%. The Activity (COLO 205 [17]) was 77.29%, the Activity (COLO 205 [18]) was 42.09% and the Activity (COLO 205 [19]) was 10.85%. For the same compound, the Activity (COLO 205 [20]) was 0.74%, the inhibition [21] was 72% and the Activity (COLO 205 [22]) was “inactive”. It also gave an Activity (COLO 205 [23]) of 15.55%, an Activity (COLO 205 [24]) of 27.33% and an Activity (COLO 205 [25]) of 0.96%. It also gave an IC50 [26] of 9.5 µM, an IC90 [26] of 35.7 µM and an Activity (COLO 205 [27]) of 92.93%. The Activity (COLO 205 [28]) was 8.27%, the Activity (COLO 205 [29]) was 37.46% and the Activity (COLO 205 [30]) was “Active”. For the same compound, the Activity (COLO 205 [31]) was “inactive”, the inhibition [32] was “Dose-Dependent Effect” and the Activity (COLO 205 [33]) was 26.64%. The Activity (COLO 205 [34]) was 0.12%, the Activity (COLO 205 [35]) was “Active” and the inhibition [36] was “Dose-Dependent Effect”. For the same compound, the inhibition [37] was “Dose-Dependent Effect” and the Activity (COLO 205 [38]) was 2.48%.
`Cc1cn([C@H]2C[C@@H](n3cc(CNC(=O)Nc4cccc(S(N)(=O)=O)c4)nn3)[C@@H](CO)O2)c(=O)[nH]c1=O` was tested, and the Ki [1] was 3.24 µM, the Activity (COLO 205 [2]) was 0.52% and the IC50 [3] was 0.85 µM. For the same compound, the IC90 [3] was 10.2 µM, the Activity (COLO 205 [4]) was 81.3% and the Activity (COLO 205 [5]) was “Active”. The Activity (COLO 205 [6]) was 55.82%, the Activity (COLO 205 [7]) was 0.14% and the viability at 100 µM (COLO 205 [8]) was 74.9%. It also gave an Activity (COLO 205 [9]) of 3.09%, an Activity (COLO 205 [10]) of 1.61% and an Activity (COLO 205 [11]) of 62.43%. The inhibition [12] was > 70%, the Activity (COLO 205 [13]) was 1.86% and the IC50 [14] was 3 µM. It also gave an IC90 [14] of 35.1 µM, an Activity (COLO 205 [15]) of 1.19% and an inhibition [16] of 4.5%. For the same compound, the Activity (COLO 205 [17]) was 79.38%, the Activity (COLO 205 [18]) was 63.55% and the Activity (COLO 205 [19]) was 9.6%. The Activity (COLO 205 [20]) was 1.32%, the inhibition [21] was 58% and the Activity (COLO 205 [22]) was “inactive”. The Activity (COLO 205 [23]) was 11.94%, the Activity (COLO 205 [24]) was 29.22% and the Activity (COLO 205 [25]) was 0.51%. The IC50 [26] was 2.2 µM, the IC90 [26] was 22.1 µM and the Activity (COLO 205 [27]) was 94.91%. The Activity (COLO 205 [28]) was 12.33%, the Activity (COLO 205 [29]) was 34.74% and the Activity (COLO 205 [30]) was “Active”. The Activity (COLO 205 [31]) was “inactive”, the inhibition [32] was “Dose-Dependent Effect” and the Activity (COLO 205 [33]) was 5.76%. The Activity (COLO 205 [34]) was 0.14%, the Activity (COLO 205 [35]) was “Active” and the inhibition [36] was “Dose-Dependent Effect”. For the same compound, the inhibition [37] was “Dose-Dependent Effect” and the Activity (COLO 205 [38]) was 2.52%.
